{"source": "patent US20230149410A1", "about": "“TREATMENT OF CONDITIONS ASSOCIATED WITH THYROID HORMONE” (priority 2020, published 2023)", "origin": "cited, not measured here", "settings": "profound hypothyroidism after birth, treated immediately after birth", "note": "Read-outs that look alike come from different tables or passages of the source.", "data": [{"compound": "N[C@@H](Cc1cc(I)c(Oc2cc(I)c(O)c(I)c2)c(I)c1)C(=O)O", "note": "[levothyroxine]", "values": [{"measurement": "thyroid status by thyroid hormone testing in plasma or serum (blood)", "value": "rendered chemically euthyroid"}, {"measurement": "thyroid status by thyroid hormone testing in plasma or serum (blood)", "setting": "listed as T4", "value": "became chemically euthyroid"}]}]}
